Patent US11591632B2, “Genetically-mutated bacterial strain for detecting estrogenic compound and method for detecting estrogenic compound using the same” (INDUSTRY-UNIVERSITY COOPERATION FOUNDATION HANYANG …, priority 2016, dated 2023)

What was measured:
hERα LBD [1] = biological target: T1, hERα LBD (Homo sapiens, UniProt P03372); assay type: cell-based; conditions: E. coli FW102 OL2-62 pACλCI::RIP140-FLAG pBRαNTD::hERα LBD-FLAG, 20 μM IPTG, 30 minutes incubation
T1 construct: hERα LBD (N304-T553: amino acid 304, asparagine, through amino acid 553, threonine); expressed in transfected cells; host or cells: E. coli FW102 OL2-62
T1 sequence (P03372 304-553): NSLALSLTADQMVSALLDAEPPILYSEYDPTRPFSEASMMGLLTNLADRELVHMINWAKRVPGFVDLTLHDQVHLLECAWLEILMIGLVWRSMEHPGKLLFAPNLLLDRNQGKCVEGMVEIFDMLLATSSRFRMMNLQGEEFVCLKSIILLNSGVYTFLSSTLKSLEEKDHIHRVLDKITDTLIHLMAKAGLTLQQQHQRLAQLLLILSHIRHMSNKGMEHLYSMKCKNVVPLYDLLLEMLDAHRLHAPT
T1 sequence (P48552 whole entry partner, the tested form may be a part): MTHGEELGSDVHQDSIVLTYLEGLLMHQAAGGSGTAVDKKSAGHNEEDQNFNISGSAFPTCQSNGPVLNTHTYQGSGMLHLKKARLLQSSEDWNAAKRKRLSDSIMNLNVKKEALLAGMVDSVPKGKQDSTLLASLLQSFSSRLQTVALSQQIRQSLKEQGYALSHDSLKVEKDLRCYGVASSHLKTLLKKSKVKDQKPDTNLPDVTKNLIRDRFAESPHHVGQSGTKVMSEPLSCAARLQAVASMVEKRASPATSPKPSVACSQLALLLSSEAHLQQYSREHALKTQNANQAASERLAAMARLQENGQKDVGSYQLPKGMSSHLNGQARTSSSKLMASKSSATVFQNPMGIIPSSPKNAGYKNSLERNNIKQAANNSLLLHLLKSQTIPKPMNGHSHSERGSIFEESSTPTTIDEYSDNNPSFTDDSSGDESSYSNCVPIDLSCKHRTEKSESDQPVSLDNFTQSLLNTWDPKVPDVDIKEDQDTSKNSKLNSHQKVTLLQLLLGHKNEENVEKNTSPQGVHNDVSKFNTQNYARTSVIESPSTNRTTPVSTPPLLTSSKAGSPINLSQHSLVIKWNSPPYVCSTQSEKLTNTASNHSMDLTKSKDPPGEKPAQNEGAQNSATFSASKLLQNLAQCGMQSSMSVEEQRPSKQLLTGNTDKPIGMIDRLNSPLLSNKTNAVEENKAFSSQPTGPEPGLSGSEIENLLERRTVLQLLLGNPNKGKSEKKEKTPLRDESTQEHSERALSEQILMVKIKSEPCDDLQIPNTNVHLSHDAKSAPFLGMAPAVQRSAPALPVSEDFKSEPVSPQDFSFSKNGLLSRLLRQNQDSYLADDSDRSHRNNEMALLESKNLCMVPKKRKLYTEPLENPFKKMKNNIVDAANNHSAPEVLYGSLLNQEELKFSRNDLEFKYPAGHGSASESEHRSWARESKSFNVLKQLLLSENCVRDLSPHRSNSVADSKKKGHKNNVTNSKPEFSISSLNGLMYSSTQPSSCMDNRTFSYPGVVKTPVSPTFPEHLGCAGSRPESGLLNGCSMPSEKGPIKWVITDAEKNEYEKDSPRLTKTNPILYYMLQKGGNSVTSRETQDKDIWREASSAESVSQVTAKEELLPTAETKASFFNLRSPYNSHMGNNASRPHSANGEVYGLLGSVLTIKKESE
T1 sequence (P0A7Z4 1-248 partner limits assumed): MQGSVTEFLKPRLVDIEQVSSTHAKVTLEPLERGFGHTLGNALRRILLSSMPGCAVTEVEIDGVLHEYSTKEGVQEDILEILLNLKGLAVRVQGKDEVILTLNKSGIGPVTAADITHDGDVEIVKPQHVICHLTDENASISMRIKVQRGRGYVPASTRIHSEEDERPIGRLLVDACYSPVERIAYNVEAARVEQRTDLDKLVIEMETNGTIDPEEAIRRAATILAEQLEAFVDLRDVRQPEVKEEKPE
T1 sequence (P03034 whole entry partner, the tested form may be a part): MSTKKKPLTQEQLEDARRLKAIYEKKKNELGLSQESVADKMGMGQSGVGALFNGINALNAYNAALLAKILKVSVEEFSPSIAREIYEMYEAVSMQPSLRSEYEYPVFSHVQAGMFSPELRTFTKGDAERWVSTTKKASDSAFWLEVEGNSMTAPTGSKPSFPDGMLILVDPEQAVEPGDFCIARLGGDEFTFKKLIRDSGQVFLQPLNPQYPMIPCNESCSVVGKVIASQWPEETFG
Experimental: (§1) Afterward, estrogens and EDCs were added at corresponding concentrations, and the cells were further incubated for 30 minutes. Subsequently, 800 μL of the cells were harvested, and resuspended in 800 μL of a buffer solution (60 mM of Na2HPO4, 40 mM of NaH2PO4, 10 mM of KCl, 1 mM of MgSO47H2O, 400 μM of dithiothreitol), followed by measuring OD600 (cell content). Afterward, the cells were lysed by ultrasonication and treated with 160 μL of 4 mg/mL ONPG, and thus a time to change a color of the specimen into yellow was recorded. When the color of the specimen changed to yellow, the reaction was stopped with 400 μL of 1M Na2CO3.

hERα LBD [2] = conditions: LE7197, lacZ expression in Miller units, with IPTG, 30 minutes incubation
Experimental: as §1, with “The E. coli FW102 OL2-62 pACλCI::TIF2 BD-FLAG pBRαNTD::hERα LBD-FLAG strain was inoculated, and cultured up to OD600˜ 0.4 (20 μM IPTG added; the inducible substance for inducing expression of λCI-TIF2 BD-FLAG and αNTD-hERα LBD-FLAG). Afterward, estrogens” for “Afterward, estrogens”
Afterward, through β-galactosidase analysis, the expression of a reporter gene, the lacZ gene, was expressed in terms of Miller units.

Row | Molecule | Miller units as a function of compound concentration in the specimen (hERα LBD [1]) | concentration that can be sensed/detected by sensor strain (hERα LBD [2])
1 | CC(C)(c1ccc(O)cc1)c1ccc(O)cc1 [bisphenol A] | the higher the Miller units | –
2 | Oc1ccc(Cc2ccc(O)cc2)cc1 [bisphenol F] | – | several hundred
3 | nonylphenol | the higher the Miller units | approximately 100 nM
4 | O=S(=O)(c1ccc(O)cc1)c1ccc(O)cc1 [bisphenol S] | – | several hundred
